Measurements as given in patent publication US5734081A, “Arylthio compounds” (Warner-Lambert Company, priority 1995, dated 1998).
pEC50: −log10 of the molar value. Read-outs that look alike come from different tables or passages of the source.

Tests used:
Strep. pyogenes c-203 = test: Antibacterial activity, microtitration; assay type: cell-based; conditions: Gram (+)
Experimental: (§1) The compounds are additionally useful as broad spectrum antibiotics. Minimum inhibitory concentrations were determined utilizing microtitration techniques described by Heifetz, et. al., Antimicrobial Agents and Chemotherapy, 1974, Vol. 6, 124. The data establish that the compounds have activity against a broad spectrum of bacteria, both Gram +and Gram -. Accordingly, the compounds can be utilized to treat and prevent bacterial diseases in animals and humans. They can also be used as industrial disinfectants, for example, to reduce bacterial growth in shower stalls and public areas.

E. coli MC4100 = test: Antibacterial activity, microtitration; assay type: cell-based; conditions: Gram (-)
Experimental: as §1

Stah. aureus RBI = test: Antibacterial activity, microtitration; assay type: cell-based; conditions: Gram (+)
Experimental: as §1

E. coli B90 = test: Antibacterial activity, microtitration; assay type: cell-based; conditions: Gram (-)
Experimental: as §1

[1] = H9 cell cytotoxicity (XTT assay, uninfected cells); assay type: cell-based; conditions: human, drug alone, read-out: IC50 (Inhibitory Concentration where drug alone inhibits cell growth)
Experimental: (§2) The H9 T-cell line is batch infected with HIV virus at an M0I of 0.01. After 2 hours absorption, the cells are washed, resuspended in RPMI-1640/10% fetal calf serum, and seeded at […] of a 96-well plate. A duplicate plate of uninfected H9 cells is prepared for the cytotoxicity assay. Drugs are serially diluted 1/3.16 in DMSO, transferred to media at an 8× concentration, and then added to the cultures in triplicate. The final DMSO concentration of 0.002 (0.2%).
(§3) Viral production is measured by RT assay and cytotoxicity is measured by XTT assay at 7 days post-infection. The RT assay is performed as a modification of Borroto-Esoda and Boone, J. Virol., 1991;65:1952-1959 and quantitated using a Molecular Dynamics Phosphoimager with Imagequant software. The XTT assay is performed as a modification of Roehm, et al., J. Immuno. Methods., 1991;142:257-265 and quantitated using a molecular Devices Thermomax plate reader with Softmax software.
(§4) Data is electronically transferred to a Microsoft Excell spreadsheet for analysis. The RT assay values equivalent to 50% and 90% inhibition of virus production are calculated from the untreated controls. The concentrations of inhibitor required to produce these values (IC50 and IC90) are interpolated from data points flanking these RT activities. The XTT assay values equivalent to 50% cytotoxicity are calculated from the untreated controls. The concentrations of inhibitor required to produce this value are interpolated from data points flanking these XTT values.

HIV-1 [2] = test: CEM cell assay, anti-HIV-1 activity; assay type: cell-based; conditions: Human immunodeficiency virus 1, CCRF-CEM, HIV-1, 6 or 7 days, read-out: EC50 (Effective Concentration which protects cells from viral cytopathic effects)
Text: The test systems utilized to establish the antiviral activity of the arylthio compounds of this invention are well recognized in the art and are routinely employed for such purpose. For example, the assay utilized to evaluate the compounds activity against the HIV virus is that employed by the U.S. National Cancer Institute as described by Weislow O. S., et al., J. Natl. Cancer Inst., 1989;81:577-586, incorporated herein by reference.
The procedure is designed to detect agents acting at any stage of the virus reproductive cycle. The assay basically involves the killing of T4 lymphocytes by HIV. Small amounts of HIV are added to cells, and at least two complete cycles of virus reproduction are necessary to obtain the required cell killing. Agents which interact with virions, cells, or virus gene-products to interfere with viral activities will protect cells from cytolysis. The system is automated in several features to accommodate large numbers of candidate agents, and is generally designed to detect anti-HIV activity. However, compounds which degenerate or are rapidly metabolized in the culture conditions may not show activity in this screen.
(§5) Yet another test system employed to determine antiviral activity is called the CEM cell assay.
(§6) T4 lymphocytes (CEM cell line) are exposed to HIV at a virus to cell ratio approximately 0.05, and plated along with noninfected control cells in 96-well microliter plates.
(§7) The candidate agent is dissolved in dimethyl sulfoxide (unless otherwise noted), then diluted 1:200 in cell culture medium. Further dilutions (half-log10) are prepared before adding to an equal volume of medium containing either infected or noninfected cells. Cultures are incubated at 37° in a 5% carbon dioxide atmosphere for 6 or 7 days. The tetrazolium salt, XTT, is added to all wells, and cultures are incubated to allow formazan color development by viable cells (J. National Cancer Institute, 1989;81:577-586). Individual wells are analyzed spectrophotometrically to quantitate formazan production, and in addition are viewed microscopically for detection of viable cells confirmation of protective activity.
(§8) Drug-tested virus-infected cells are compared with drug-treated noninfected cells and with other appropriate controls (untreated infected and untreated noninfected cells, drug-contain wells without cells, etc.) on the same plate. Data are reviewed in comparison with other tests done at the same time and a determination about activity is made.

HIV-1 [3] = test: HIV H9 cell assay, anti-HIV-1 activity; assay type: cell-based; conditions: Human immunodeficiency virus 1, H9, 168 h, read-out: EC50 (Effective Concentration which protects cells from viral cytopathic effects)
Text: Another test system utilized to evaluate the invention compounds is called HIV H9 assay. The HIV H9 cell assay measures the inhibitor concentration required to suppress HIV-1 virus replication. In this system, viral growth occurs through multiple rounds of the life-cycle. Any suppression of the replication kinetics results in a geometric decrease in virus production. As a result, this assay is a sensitive means of measuring the ability of a compound to inhibit HIV-1 viral replication.
as §2, §3, §4

[4] = CEM cell growth inhibition (XTT, noninfected cells); assay type: cell-based; conditions: human, CEM Cell Assay, drug alone, read-out: IC50 (Inhibitory Concentration where drug alone inhibits cell growth)
Experimental: as §5, §6, §7, §8

HIV-1A17 [5] = test: Anti-HIV activity, HIV-1A17 in MT-2 cells; assay type: cell-based; conditions: Human immunodeficiency virus 1, MT2
Experimental: (§9) The compounds of the invention were also evaluated against various other HIV strains and cell lines utilizing the assay methodology described above. The compounds were additionally evaluated against clinical isolates of HIV strains.

HIV-1IIIb [6] = test: Anti-HIV activity, HIV-1IIIb in MT-2 cells; assay type: cell-based; conditions: Human immunodeficiency virus 1, MT2; MT-2, HIV-1IIIb
Experimental: as §9

HIV-1A17 [7] = test: Anti-HIV activity, HIV-1A17 in MT-4 cells; assay type: cell-based
Experimental: as §9

HIV-1N119 = test: Anti-HIV activity, HIV-1N119 in CEM cells; assay type: cell-based; conditions: Human immunodeficiency virus 1, CCRF-CEM
Experimental: as §5, §6, §7, §8, §9

HIV-1RF = test: Anti-HIV activity, HIV-1RF in CEM cells; assay type: cell-based; conditions: Human immunodeficiency virus 1, CCRF-CEM
Experimental: as §5, §6, §7, §8, §9

HIV-1WEIO = test: Anti-HIV activity, clinical isolate HIV-1WEIO in PBL; assay type: cell-based
Experimental: as §9

SIV = test: Antiviral activity, SIV in CEM cells; assay type: cell-based; conditions: Simian immunodeficiency virus, CCRF-CEM
HIV-16R = test: Anti-HIV activity, HIV-16R in MT-4 cells; assay type: cell-based, HIV-1
Experimental: as §9

HIV-2ROD = test: Anti-HIV activity, HIV-2ROD in CEM cells; assay type: cell-based; conditions: Human immunodeficiency virus 2, CCRF-CEM
Experimental: as §5, §6, §7, §8, §9

HIV-1IIIb [8] = test: Anti-HIV activity, HIV-1IIIb in CEM cells; assay type: cell-based; conditions: Human immunodeficiency virus 1, CCRF-CEM
Experimental: as §5, §6, §7, §8, §9

[9] = biological target: T1, HIV-1 Nucleocapsid Protein (NCp7) (Human immunodeficiency virus type 1 group M subtype B, UniProt P12493); test: Zinc extrusion assay (TSQ fluorescence) from the zinc fingers of HIV-1 nucleocapsid protein (NCp7); assay type: biochemical; conditions: 10 μM compound, 2.8 μM NCp7, pH 7.4, 26° C., 90 minutes
T1 construct: The NCp7 protein containing 2 Zn-fingers and 2 Zn ions is incubated with drug
Text: The compounds of the present invention cause the extrusion of zinc from the nucleocapsid protein (NCp7) of HIV-1. The NC protein is highly conserved among all retroviruses (South T., Blake P., et al., Biochemistry, 1990;29:7786) and is essential for viral infectivity (Aldovini A. and Young R., J. Virology, 1990;64:1920 and Gorelick R., Nigida S., et al., J. Virology, 1990;64:3207). The zinc is normally held in NC proteins by 1 or 2 zinc fingers. In the case of HIV-1, 2 zinc fingers are present (Summers M., South T., et al., Biochemistry, 1990;29:329) and are involved specifically with the PSI site on viral RNA which controls the packaging of viral RNA. Interference of this packaging causes the formation of non-infectious virions (Dannull J., Surovoy A., et al., EMBO, 1994;13:1525). It has previously been shown that compounds that cause zinc extrusion have potent anti-HIV activity in multiple cell lines and against all retroviruses (Rice W., Schaeffer C., et al., Nature, 1993;361:473).
A fluorescence-based assay has been developed to monitor the ejection of zinc from purified HIV-1 NCp7. The fluorophore, N-(6-methoxy-8-quinolyl)-p-toluenesulfonamide (TSQ), has an increased fluorescent signal upon bonding zinc ion in solution. The NCp7 protein containing 2 Zn-fingers and 2 Zn ions is incubated with drug causing the extrusion of Zn ions. The released Zn is then sequestered by the TSQ and the increased fluorescence monitored relative to control. […] Fluorescence (excitation 355 nm emission 400 nm) was monitored versus time. Controls were the NCp7 under assay conditions without drug, and apo NCp7 (no Zn) with drug. The % Zn extrusion was calculated based on the actual fluorescence measured divided by the fluorescence of all theoretical Zn extruded (5.6 μM)×100.
Table 1 below presents data for several invention compounds evaluated in the zinc extrusion assay described above.

[10] = Human immunodeficiency virus 1, MT4, read-out: EC50 (AZT)
[11] = Human immunodeficiency virus 1, MT4

Work on `NS(=O)(=O)c1ccc(NC(=O)c2ccccc2S)cc1` [Example 6, 2-Thio-N-(4-sulfamoylphenyl)benzamide] yielded a Minimum inhibitory concentration (Strep. pyogenes c-203) of 64, a Minimum inhibitory concentration (E. coli MC4100) of 64 and a Minimum inhibitory concentration (Stah. aureus RBI) of 128. For the same compound, the Minimum inhibitory concentration (E. coli B90) was 32, the CC50 at 168 h [1] was 28 µM and the pEC50 (HIV-1 [2]) was 5.28. It also gave a pEC50 (HIV-1 [3]) of 5.60 and a CC50 [4] of over 100 µM.

Compound `O=c1[nH]cnc2c1ncn2[C@H]1CC[C@@H](CO)O1` [ddI, dideoxyinosine, reference compound] has a pEC50 (HIV-1A17 [5]) of 5.34 and a pEC50 (HIV-1IIIb [6]) of 5.22.

For `Cc1cn([C@H]2C[C@H](N=[N+]=[N-])[C@@H](CO)O2)c(=O)[nH]c1=O` [AZT, azidothymidine, reference compound], the pEC50 (HIV-1A17 [7]; [10]) was 6.94, the pEC50 (HIV-1N119; read-out: EC50 (AZT)) was 7.35 and the pEC50 (HIV-1RF; read-out: EC50 (AZT)) was 9.22. The pEC50 (HIV-1WEIO; Human immunodeficiency virus 1, read-out: EC50 (AZT)) was 8.52, the pEC50 (SIV; read-out: EC50 (AZT)) was 6.61 and the pEC50 (HIV-16R; [10]) was under 6.00. For the same compound, the pEC50 (HIV-2ROD; read-out: EC50 (AZT)) was 8.85 and the pEC50 (HIV-1IIIb [8]; read-out: EC50 (AZT)) was 8.35.

Work on `CC(=O)NS(=O)(=O)c1ccc(NC(=O)c2ccccc2SSc2ccccc2C(=O)Nc2ccc(S(=O)(=O)NC(C)=O)cc2)cc1` [Example 4, 2,2'-Dithiobis-N-[4-[(acetylamino)sulfonyl]phenyl]benzamide] yielded a pEC50 (HIV-1A17 [7]; [11]) of 5.05, a pEC50 (HIV-1N119) of 5.34 and a pEC50 (HIV-1RF; CEM, HIV-1RF, read-out: EC50) of 5.82. For the same compound, the pEC50 (HIV-1WEIO; Human immunodeficiency virus 1) was 5.28, the pEC50 (SIV; read-out: EC50) was 5.47 and the pEC50 (HIV-16R; [11]) was 5.72. For the same compound, the pEC50 (HIV-2ROD; CEM, HIV-2ROD, read-out: EC50) was 5.52, the Minimum inhibitory concentration (Strep. pyogenes c-203) was 64 and the Minimum inhibitory concentration (E. coli MC4100) was 128. It also gave a Minimum inhibitory concentration (Stah. aureus RBI) of 256, a Minimum inhibitory concentration (E. coli B90) of 32 and a CC50 at 168 h [1] of 27 µM. For the same compound, the pEC50 (HIV-1IIIb [8]; CEM, HIV-1IIIb, read-out: EC50) was 5.28, the pEC50 (HIV-1 [3]) was 5.32 and the “% Zinc Extrusion Relative to Control” value [9] was 87%.
